Test results reported in patent publication US5912224A, “Methods and compositions for enhancing cellular response to TGF-β ligands” (priority 1997, dated 1999).

Key:
FKBP12 = FKBP12 (Homo sapiens, UniProt P62942); details: cited from earlier work
[1] = in vivo; cited from earlier work
Mullerian duct = experiment: Urogenital ridge organ culture assay (MIS-mediated Mullerian duct regression); design: species or system rat
Method: The organ culture assay was carried out as described previously (Donahoe, P. K. et al., J. Surg. Res. 23:141-148 (1977)). Briefly, urogenital ridges containing Wolffian and Mullerian ducts from 14.5 day female rat fetuses were maintained in CMRL media with 10% fetal calf serum, 100 units/ml penicillin, and 100 μg/ml streptomycin. To test the effect of the non-functional derivatives of FK506 (L685,818 or 15-O-desmethyl FK520) on Mullerian duct regression, the specimens were treated with the indicated doses of MIS in the presence or absence of the non-functional derivatives of FK506 and incubated at 37° C. in 5% CO2 and 95% air. After 72 hours, the specimens were fixed in formalin, dehydrated in an alcohol series, cleared in xylene, embedded in paraffin, cut in serial cross sections, stained with hematoxylin and eosin and graded for regression of the Mullerian duct as described (Donahoe, P. K. et al., J. Surg. Res. 23:141-148 (1977)).
Since FKBP12 binds to all known type I receptors, its inhibitory activity should therefore also be detected in the signaling events mediated by other TGF-β family members. Mullerian Inhibiting Substance (MIS) is a unique member of the TGF-β family known to be responsible for regression of the Mullerian duct in fetal males through an active apoptotic process (Jost, A., Arch. Anat. Micro. Morph. Exp. 36:271-315 (1947); Price, J. M. et al., Am. J. Anat. 149:353-376 (1977); Trelstad, R. L. et al., Devl. Bio. 92:27-40 (1982)). The activity of MIS in the regression of the Mullerian ducts can be measured directly in an organ culture assay (Donahoe, P. K. et al., J. Surg. Res. 23:141-148 (1977)). In this assay, urogenital ridges containing both the Wolffian duct and the Mullerian duct are isolated from fourteen and a half day female fetuses. […] When 1 μg MIS was added into the organ culture, grade 1.5 regression was observed, which histologically corresponds to a condensation of the mesenchymal cells surrounding a smaller and irregularly shaped Mullerian duct (FIG. 5, A, top panel). […] We further tested the effect of 1 μM 15-O-desmethyl-FK520 on the regression activities of different doses of MIS (FIG. 5, B).

Mv1Lu cells [2] = experiment: Growth inhibition assay; format: cell-based, mink; details: for growth inhibition, macrolide alone: each alone, added to Mv1Lu cells
Method: Growth Inhibition Assay Mv1Lu cells were seeded in 12-well plate at 3×10^4 cells/well and incubated overnight. Cells were treated with 15-O-demethyl FK520 for 2 hours and with TGF-β for 36 to 40 hours in the presence of the drug. Cells were trypsinized, and cell numbers were determined in a Coulter counter.
To distinguish between these possibilities, both 15-O-desmethyl-FK520 and L685,818 were used to test the role of FKBP12 in the signaling events mediated by TGF-β, and yielded very similar results; here we report the results from using 15-O-desmethyl-FK520. In the absence of 15-O-desmethyl-FK520, TGF-β elicits two cellular responses when added into the mink lung epithelial cell line Mv1Lu: the growth inhibition response, which can be detected by a decrease in cell number, and the gene activation response, which can be measured by an increase in the luciferase activities resulting from the activation of a transfected luciferase reporter gene regulated by a Plasminogen Activator Inhibitor (PAI) promotor (Wrana, J. L. et al., Cell 71:1003-1014 (1992)). […] Therefore, FKBP12 binding to the TGF-β type I receptor is not necessary, but is inhibitory to the type I receptor mediated signaling, and release of FKBP12 is not sufficient for complete activation of the downstream signaling events in the absence of TGF-β.

[3] = test system: FKBP12 (T7 tagged) binding to TGF-β type I receptor (R4); experiment: R4/FKBP12 co-immunoprecipitation competition in transfected COS cells; format: cell-based; details: for block of R4/FKBP12 co-immunoprecipitation: 100 nM derivative, COS cells transfected with R4 and T7 tagged FKBP12
Method: For testing FKBP12 binding to ligand-free TGF-β type I receptor (either wild type or mutants) by co-immunoprecipitations, COS1 cells grown in P-100 dishes were transfected with 4 μg of T7 tagged FKBP12 in pCMV8 and 6 μg of R4 (or mutant R4) in pCMV6 using the DEAE-dextran method. In the case of using metabolic labeling to detect co-precipitation of FKBP12 and R4, 40-44 hours after transfection COS1 cells were incubated for 4 hours with 50 μCi/ml [^35 S]-methionine in methionine-free media and lysed in lysis buffer (20 mM Tris-HCl [pH 7.4], 150 mM NaCl, 0.5% Triton X-100, 1 mM EDTA) in the presence of a mixture of protease inhibitors. Anti-T7 monoclonal antibody (5 μl) was added into 200 μl of cell lysates, incubated at 4° C. for 2 hours, absorbed with protein A sepharose beads, and washed three times with wash buffer (20 mM Tris-HCl [pH 7.4], 150 mM NaCl, 0.1% Triton X-100, 1 mM EDTA). Proteins were eluted from the sepharose beads using 2× SDS-PAGE denaturing sample buffer, separated on 15% SDS-PAGE. The gel was treated with Autofluor (National Diagnostic), dried and subjected to autoradiography for 48 hours. In the case of using Western blot to detect co-precipitated T7 tagged FKBP12, cell lysates were immunoprecipitated with 10 μl of VPN antiserum, which recognizes a juxtamembrane region of the TGF-β type I receptor (Franzen, P. et al., Cell 75:681-692 (1993)). The immunoprecipitates were separated on 15% SDS-PAGE, electrotransferred onto nitrocellulose membrane, blotted using anti-T7 monoclonal antibody, and detected by ECL (Amersham).
For testing the effect of non-functional FK506 derivatives (L685,818 from Merck Laboratories and 15-O-desmethyl-FK520 from Sandoz) on FKBP12 binding to R4, 2 hours after transfection COS1 cells were treated with the derivatives for […] and then labeled for 4 hours with 50 μCi/ml [^35 S]-methionine in methionine-free media 40-44 hours after transfection. Cells were then lysed and immunoprecipitation was carried out as described above. […]

Mv1Lu cells [4] = experiment: Transcriptional response assay (p3TP-lux luciferase reporter); format: cell-based, mink
From the text: Two TGF-β responsive mink lung epithelial cell lines Mv1Lu and L17, the latter being a highly transfectable clone of R1B lacking the functional type I receptor of TGF-β, were used in a transcriptional response employing a DEAE-dextran method (Bassing, C. et al., Science 263:87-89 (1994); Wrana, J. L. et al., Nature 370:341-47 (1994)). Briefly, cells grown to 50% confluency in 6-well plates were transiently transfected with the transcriptional response reporter construct p3TP-lux alone or together with different constructs of the type I receptor. Sixteen to twenty hours after transfection, cells were treated with TGF-β in 0.2% serum medium for 24 to 28 hours. For testing the effect of FK506 derivative 15-O-desmethyl FK520, cells were treated with the drug beginning two hours prior to the addition of TGF-β. Cell lysates were made and luciferase activity was measured in a luminometer. Each assay was carried out in duplicate or triplicate.
To distinguish between these possibilities, both 15-O-desmethyl-FK520 and L685,818 were used to test the role of FKBP12 in the signaling events mediated by TGF-β, and yielded very similar results; here we report the results from using 15-O-desmethyl-FK520. […]

[5] = target: FKBP12 mutant (G89P, 190K) (Homo sapiens, UniProt P62942, G90P/I91K); details: mutations within the 80s loop; cited from earlier work
FKBP12 mutant (G89P, 190K), sequence (P62942 2-108 G90P/I91K limits assumed): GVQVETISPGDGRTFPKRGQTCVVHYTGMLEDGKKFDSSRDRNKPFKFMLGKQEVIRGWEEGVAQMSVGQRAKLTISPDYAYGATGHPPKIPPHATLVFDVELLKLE

[6] = target: T1, FKBP12 binding to R4C (cytoplasmic domain of TGF-β type I receptor) (Rattus norvegicus, UniProt Q62658); details: excess macrolide, yeast cells; cited from earlier work
T1 construct: host or cells: yeast (two-hybrid)
T1 sequence (Q62658 whole entry, the tested form may be a part): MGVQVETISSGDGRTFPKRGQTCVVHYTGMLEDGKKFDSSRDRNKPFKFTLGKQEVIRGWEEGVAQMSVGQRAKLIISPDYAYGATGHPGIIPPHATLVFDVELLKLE

[7] = test system: FKBP12 mutant D37G (mFKBP12); details: point mutation within the macrolide binding site; cited from earlier work
[8] = macrolide up to 1 μM together with TGF-β 15 pM

FKBP12, sequence (P62942 whole entry): as the sequence (Q62658 whole entry, the tested form may be a part) above, with S10P, T50M, I76T counted along it

Q: For CC[C@@H]1/C=C(\C)C[C@H](C)C[C@H](O)[C@H]2O[C@@](O)(C(=O)C(=O)N3CCCC[C@H]3C(=O)O[C@H](/C(C)=C/[C@@H]3CC[C@@H](O)[C@H](OC)C3)[C@H](C)[C@@H](O)CC1=O)[C@H](C)C[C@@H]2OC [15-O-desmethyl-FK520], which “affinity for FKBP12” value (FKBP12) is on record?
A: binds with high affinity

Q: What about the “toxicity in animal models” value [1] of the same molecule?
A: do not induce toxicity

Q: And the Mullerian duct regression (Mullerian duct; 1 μM macrolide alone, no MIS)?
A: no regression activity was detected

Q: And the “Mullerian duct regression grade (0 no regression to 5 complete regression)” value (Mullerian duct; 1 μM macrolide together with 1 μg MIS)?
A: 5 grade

Q: And the “regression activity of 0.1 μg MIS in presence of macrolide” value (Mullerian duct; 1 μM macrolide with 0.1 μg MIS, compared with 1 μg MIS alone)?
A: more biological activity than 1 μg MIS alone

Q: What about the “growth inhibition response, macrolide alone” value (Mv1Lu cells [2]; 1 μM alone, no TGF-β) of the same molecule?
A: Neither of the responses were detected

Q: What about the “TGF-β growth inhibition response (decrease in cell number)” value (Mv1Lu cells [2]; [8]) of the same molecule?
A: greatly enhanced

Q: And the “block of R4/FKBP12 co-immunoprecipitation” value [3]?
A: able to block R4/FKBP12 co-immunoprecipitation

Q: And the “gene activation response, macrolide alone” value (Mv1Lu cells [4]; 1 μM alone, no TGF-β)?
A: Neither of the responses were detected

Q: And the “TGF-β gene activation response (luciferase activity)” value (Mv1Lu cells [4]; [8])?
A: greatly enhanced

Q: Which results are given for C=CC[C@@H]1/C=C(\C)C[C@H](C)C[C@H](OC)[C@H]2O[C@@](O)(C(=O)C(=O)N3CCCC[C@H]3C(=O)O[C@H](/C(C)=C/[C@@H]3CC[C@@H](O)[C@H](OC)C3)[C@H](C)[C@@H](O)CC1=O)[C@H](C)C[C@@H]2OC [FK506]?
A: affinity for FKBP12 (FKBP12): bind strongly; growth inhibition, macrolide alone (Mv1Lu cells [2]): exhibited growth inhibition activities; binding to FKBP12 (G89P, 190K) [5]: without affecting; competition for binding of R4C to FKBP12 [6]: could partially compete; binding to FKBP12 D37G [7]: abolishes FKBP12 binding

Q: Which results are given for CC[C@@H]1/C=C(\C)C(O)[C@H](C)C[C@H](OC)[C@H]2O[C@@](O)(C(=O)C(=O)N3CCCC[C@H]3C(=O)O[C@H](/C(C)=C/[C@@H]3CC[C@@H](O)[C@H](OC)C3)[C@H](C)[C@@H](O)CC1=O)[C@H](C)C[C@@H]2OC (stereo partly drawn) [L685,818]?
A: affinity for FKBP12 (FKBP12): binds with high affinity; toxicity in animal models [1]: do not induce toxicity; Mullerian duct regression grade (Mullerian duct; 500 nM macrolide alone): 1 Grade; Mullerian duct regression (Mullerian duct; 500 nM macrolide together with 2 μg MIS): complete regression; block of R4 interaction with FKBP12 ([3]; 50 nM, COS cells, FIG. 4A lane 3): block R4 interaction with FKBP12; block of R4/FKBP12 co-immunoprecipitation [3]: able to block R4/FKBP12 co-immunoprecipitation

Q: For CO[C@H]1C[C@@H]2CC[C@@H](C)[C@@](O)(O2)C(=O)C(=O)N2CCCC[C@H]2C(=O)O[C@H]([C@H](C)C[C@@H]2CC[C@@H](O)[C@H](OC)C2)CC(=O)[C@H](C)/C=C(\C)[C@@H](O)[C@@H](OC)C(=O)[C@H](C)C[C@H](C)/C=C/C=C/C=C/1C [rapamycin], which “affinity for FKBP12” value (FKBP12) is on record?
A: bind strongly

Q: And the “growth inhibition, macrolide alone” value (Mv1Lu cells [2])?
A: exhibited growth inhibition activities

Q: What about the “binding to FKBP12 D37G” value [7] of the same molecule?
A: abolishes FKBP12 binding
